# Results published in ChEMBL document CHEMBL4706632, “Development of Potential Antitumor Agents from the Scaffolds of Plant-Derived Terpenoid Lactones” (J Med Chem, 2020).
# What was measured:
# [1] = Inhibition of [3H]PAF-acether binding to PAFR in rabbit platelet plasma membranes incubated for 1 hr; format: cell membranes, Oryctolagus cuniculus, Cell membrane
# [2] = Inhibition of PAFR in New Zealand rabbit platelets assessed as reduction in PAF-induced platelet aggregation measured within 5 mins by aggregometry analysis; format: tissue-based; conditions: Oryctolagus cuniculus
# [3] = tested on: L1210; test: Cytotoxicity against mouse L1210 cells; format: functional, cell-based
# [4] = Antiproliferative activity against human Panc-28 cells incubated for 72 hrs by MTT assay; format: functional, cell-based; conditions: MDA-Panc-28, 72 h
# [5] = tested on: MCF7; test: Antiproliferative activity against human MCF7 cells incubated for 48 hrs by [3H]-thymidine incorporation assay; format: functional, cell-based
# [6] = tested on: MDA-MB-435; test: Antiproliferative activity against human MDA-MB-435 cells incubated for 48 hrs by [3H]-thymidine incorporation assay; format: functional, cell-based
# [7] = tested on: HT-29; test: Cytotoxicity against human HT-29 cells incubated for 48 hrs by MTT assay; format: functional, cell-based; conditions: HT-29, 48 h
# [8] = tested on: A2058; test: Cytotoxicity against human A2058 cells incubated for 48 hrs by MTT assay; format: functional, cell-based; conditions: A2058, 48 h
# [9] = tested on: MDA-MB-231; test: Cytotoxicity against human MDA-MB-231 cells incubated for 48 hrs by MTT assay; format: functional, cell-based; conditions: MDA-MB-231, 48 h
# [10] = tested on: A549; test: Cytotoxicity against human A549 cells by SRB staining assay; format: functional, cell-based
# [11] = tested on: HCT-15; test: Cytotoxicity against human HCT-15 cells by SRB staining assay; format: functional, cell-based
# [12] = tested on: SK-OV-3; test: Cytotoxicity against human SK-OV-3 cells by SRB staining assay; format: functional, cell-based
# [13] = tested on: XF498; test: Cytotoxicity against human XF498 cells by SRB staining assay; format: functional, cell-based
# [14] = tested on: SK-MEL-2; test: Cytotoxicity against human SK-MEL-2 cells by SRB staining assay; format: functional, cell-based
# [15] = tested on: HepG2; test: Cytotoxicity against human HepG2 cells incubated for 48 hrs by alamarblue reagent based assay; format: functional, cell-based; conditions: HepG2, 48 h
# [16] = tested on: MCF7; test: Cytotoxicity against human MCF7 cells incubated for 48 hrs by alamarblue reagent based assay; format: functional, cell-based; conditions: MCF7, 48 h
# [17] = tested on: PANC-1; test: Cytotoxicity against human Panc-1 cells incubated for 48 hrs by CCK8 assay; format: functional, cell-based; conditions: PANC-1, 48 h
# [18] = tested on: SW1990; test: Antiproliferative activity against human SW1990 incubated for 72 hrs by sulphorhodamine B assay; format: functional, cell-based; conditions: SW1990, 72 h
# [19] = tested on: MCF7; test: Cytotoxicity against human MCF-7 cells incubated for 72 hrs by MTT assay; format: functional, cell-based; conditions: MCF7, 72 h
# [20] = tested on: MDA-MB-231; test: Cytotoxicity against human MDA-MB-231 cells incubated for 72 hrs by MTT assay; format: functional, cell-based; conditions: MDA-MB-231, 72 h
# [21] = tested on: PANC-1; test: Cytotoxicity against human Panc-1 cells incubated for 72 hrs by sulphorhodamine B assay; format: functional, cell-based; conditions: PANC-1, 72 h
# [22] = tested on: P388; test: Antiproliferative activity against mouse P388 cells; format: functional, cell-based
# [23] = tested on: HCT-116; test: Cytotoxicity against human HCT-116 cells by MTT assay; format: functional, cell-based
# [24] = tested on: HepG2; test: Cytotoxicity against human HepG2 cells by MTT assay; format: functional, cell-based
# [25] = tested on: BGC-823; test: Cytotoxicity against human BGC-823 cells by MTT assay; format: functional, cell-based
# [26] = tested on: HeLa; test: Cytotoxicity against human HeLa cells incubated for 48 hrs by SRB assay; format: functional, cell-based
# [27] = tested on: HepG2; test: Cytotoxicity against human HepG2 cells incubated for 48 hrs by SRB assay; format: functional, cell-based; conditions: HepG2, 48 h
# [28] = tested on: IMR-32; test: Cytotoxicity against human IMR-32 cells incubated for 48 hrs by SRB assay; format: functional, cell-based; conditions: IMR-32, 48 h
# [29] = tested on: LNCaP C4-2B; test: Cytotoxicity against human LNCaP C4-2B cells incubated for 48 hrs by MTT assay; format: functional, cell-based
# [30] = tested on: HCT-15; test: Cytotoxicity against human HCT-15 cells incubated for 48 hrs by MTT assay; format: functional, cell-based; conditions: HCT-15, 48 h
structure (smiles),measurement,setting,value
C[C@@H]1C(=O)O[C@H]2[C@H](O)[C@]34[C@@H]5OC(=O)[C@]3(O[C@@H]3OC(=O)[C@H](O)[C@@]34[C@H](C(C)(C)C)[C@H]5O)[C@@]12O,IC50,[1],17000 nM
same,IC50,[2],7500 nM
C=C1[C@@H](O)[C@@]2(O)OC[C@@]34[C@H]1[C@@H](OC(=O)/C=C/CCCCCCCC)C(=O)O[C@@H]3C[C@H]1C(C)=CC(=O)[C@@H](O)[C@]1(C)[C@@H]24,IC50,[3],90 nM
CC1(C)O[C@H]2CC(=O)OC[C@]23[C@H]2CC[C@@]4(C)[C@H](C5=CC(O)OC5=O)OC(=O)[C@H]5O[C@]54[C@]2(C)C(=O)C[C@@H]13 (some centres not stated),IC50,[4],18000 nM
CC1(C)O[C@H]2CC(=O)OC[C@]23[C@H]2CC[C@@]4(C)[C@H](c5ccoc5)OC(=O)[C@H]5O[C@]54[C@]2(C)C(=O)C[C@@H]13 [LIMONIN],IC50,[4],42000 nM
same,IC50,[5],4300 nM
same,IC50,[6],26000 nM
CC1(C)O[C@H]2CC(=O)OC[C@]23[C@H]2CC[C@@](C)([C@@H](O[C@H]4O[C@H](CO)[C@@H](O)[C@H](O)[C@H]4O)c4ccoc4)[C@@]4(O[C@@H]4C(=O)O)[C@]2(C)C(=O)C[C@@H]13,IC50,[4],20000 nM
same,IC50,[5],55000 nM
same,IC50,[6],119000 nM
C[C@@H]1C(=O)O[C@H]2C[C@@]34[C@H]5C[C@@H](C(C)(C)C)[C@]36[C@@H](OC(=O)[C@@H]6O)O[C@@]4(C(=O)O5)[C@]21O [GINKGOLIDE A],IC50,[1],940 nM
same,IC50,[2],580 nM
C=C1CC[C@@H]2[C@](C)(COC(=O)CN(C)c3ccc([N+](=O)[O-])c4nonc34)[C@H](O)CC[C@@]2(C)[C@@H]1C/C=C1/C(=O)OC[C@H]1OC(C)=O,IC50,[7],12000 nM
same,IC50,[8],4500 nM
same,IC50,[9],9800 nM
CC(=O)OC1C(=O)[C@@H]2[C@@]34COC(O)[C@@](C)([C@H](OC(C)=O)C[C@@H]3O)[C@@H]4C[C@@H](O)[C@@]2(C)[C@@]23O[C@@H]2C[C@@H](c2ccoc2)[C@]13C (some centres not stated),IC50,[10],17 nM
same,IC50,[11],70 nM
same,IC50,[12],35 nM
same,IC50,[13],12 nM
same,IC50,[14],1.2 nM
C/C1=C\CC[C@@]2(C)O[C@H]2[C@H]2OC(=O)C(CNc3ccn(C4OC(CO)[C@H](O)[C@@H]4O)c(=O)n3)[C@@H]2CC1 (some centres not stated),IC50,[15],240 nM
same,IC50,[16],5200 nM
CC(C)[C@]12O[C@H]1[C@@H]1O[C@]13[C@]1(O[C@H]1C[C@H]1C4=C(CC[C@@]13C)C(=O)OC4)[C@@H]2OCOP(=O)(O)O [MINNELIDE],IC50,[17],200 nM
COC(=O)[C@@]12OC[C@]34[C@H]([C@@H](O)[C@@H]1O)[C@@]1(C)C=C(O[C@@H]5O[C@H](CO)[C@@H](O)[C@H](O)[C@H]5O)C(=O)[C@@H](C)[C@@H]1C[C@H]3OC(=O)[C@H](OC(=O)CC(C)C)[C@@H]24,IC50,[18],> 100000 nM
same,IC50,[19],> 50000 nM
same,IC50,[20],> 50000 nM
same,IC50,[21],> 100000 nM
CC(=O)O[C@@H]1C[C@H](O)[C@@]23COC(O)[C@]1(C)[C@@H]2C[C@@H](O)[C@]1(C)[C@@H]3C(=O)C(O)[C@@]2(C)[C@H](c3ccoc3)C[C@H]3O[C@@]312 (some centres not stated),IC50,[10],75 nM
same,IC50,[11],150 nM
same,IC50,[12],470 nM
same,IC50,[13],38 nM
same,IC50,[14],19 nM
same,IC50,[22],3.8 nM
CC(C)[C@]12O[C@H]1[C@@H]1O[C@]13[C@]1(O[C@H]1C[C@H]1C4=C(C(=O)OC4)[C@@H](O)C[C@@]13C)[C@@H]2O [TRIPDIOLIDE],IC50,[23],730 nM
same,IC50,[24],1700 nM
same,IC50,[25],910 nM
C=C1[C@@H]2CC[C@@]3(C)[C@H](c4ccoc4)OC(=O)C[C@]13O[C@H]1C[C@H](OC(C)=O)C(C)(C)[C@H](CC(=O)OC)[C@]12C,IC50,[26],61000 nM
same,IC50,[27],> 100000 nM
same,IC50,[28],22 nM
CC1=C2C(=C[C@H]3[C@]4(C)CCCC(C)(C)[C@H]4CC[C@]34O[C@H]24)OC1=O,IC50,[29],10000 nM
same,IC50,[30],> 50000 nM
same,IC50,[9],> 50000 nM
